Experimental data taken from US11667602B2, “Compounds and their use” (AstraZeneca AB, priority 2020, dated 2023).

Molecular target: T1, human RXFP1 (Homo sapiens, UniProt Q9HBX9)
T1 sequence (Q9HBX9 1-757): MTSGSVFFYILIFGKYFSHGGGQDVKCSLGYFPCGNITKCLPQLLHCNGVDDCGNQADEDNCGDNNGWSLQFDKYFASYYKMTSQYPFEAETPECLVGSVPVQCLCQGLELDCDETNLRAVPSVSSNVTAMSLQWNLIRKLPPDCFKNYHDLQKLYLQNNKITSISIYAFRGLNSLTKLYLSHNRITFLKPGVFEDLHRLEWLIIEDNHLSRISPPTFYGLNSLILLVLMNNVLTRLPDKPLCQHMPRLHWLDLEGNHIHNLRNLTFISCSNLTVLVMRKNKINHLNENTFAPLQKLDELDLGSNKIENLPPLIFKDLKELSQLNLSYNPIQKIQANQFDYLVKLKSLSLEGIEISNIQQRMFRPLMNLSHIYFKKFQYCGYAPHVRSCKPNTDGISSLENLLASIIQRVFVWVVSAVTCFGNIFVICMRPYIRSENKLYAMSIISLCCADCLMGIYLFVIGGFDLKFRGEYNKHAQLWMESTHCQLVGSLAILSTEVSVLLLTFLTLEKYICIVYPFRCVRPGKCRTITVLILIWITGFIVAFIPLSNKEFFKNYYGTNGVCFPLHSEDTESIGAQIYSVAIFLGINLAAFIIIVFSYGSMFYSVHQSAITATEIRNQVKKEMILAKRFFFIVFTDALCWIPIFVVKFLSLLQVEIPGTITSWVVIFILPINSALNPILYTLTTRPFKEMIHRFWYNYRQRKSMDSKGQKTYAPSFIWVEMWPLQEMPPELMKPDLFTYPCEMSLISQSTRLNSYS
Assay: RXFP1 Hu cAMP (Test A)
Type: cell-based
Set-up: expressed in transfected cells; host or cells: Jump-In T-REx CHO-K1 cells (ThermoFisher), induced with 10 ng/ml doxycycline for 24 h
Details: RXFP1 Hu cAMP; for EC50: read-out: Test A EC50
Text: To screen for modulators of hRXFP1, an assay identifying compounds that stimulate cAMP production via the Gs-coupled hRXFP1 receptor was used. cAMP HiRange HTRF kit (available from CisBio Bioassays, France; catalogue number 62AM6PEJ) was employed in large according to manufacturer's recommendations for detection of cAMP. The HTRF method is a competitive immunoassay between native cAMP produced by cells and cAMP labeled with the dye d2. The tracer binding is visualized with a cryptate labeled antibody for cAMP and the signal is thus inversely proportional to the amount of produced cAMP.
Cells: Jump-In™ T-REx™ CHO-K1 Cells (ThermoFisher) stably transfected with human RXFP1 was employed. Cells were induced to express human RXFP1 by treatment with 10 ng/ml doxycycline for 24 h. Cells were then cryopreserved for long term storage.
HTRF detection reagents: cAMP-d2 and anti-cAMP cryptate reconstituted according to CisBio instructions were diluted 1:40 in lysis buffer provided with the HTRF-kit.
3. 4 μL assay buffer with 1 mM IBMX (0.5 mM final concentration) to block phosphodiesterases was added with Multidrop Combi (ThermoFisher).
6. 4 μL cAMP-d2 in lysis buffer was added with Multidrop Combi.
7. 4 μL anti-cAMP cryptate in lysis buffer was added with Multidrop Combi
8. 2 h incubation at room temperature
Using a cAMP standard curve, HTRF data was converted to amount cAMP produced in the samples which was subsequentially used for calculation of concentration responses. Concentration response data were fitted with a four parameter logistic fit, the Hill equation. The results from the assay are reported in Table 36 as EC50 (μM) and Sinf (%).
Where the assay was run multiple times for the same compound, the geometric mean is reported.
Sinf is the fitted activity level, efficacy, at infinite concentration of test compound. To facilitate comparison of efficacy data, efficacy was normalized to % effect of the response stimulated by a saturating concentration of relaxin (1 nM). Where the assay was run multiple times for the same compound, the arithmetic mean is reported.

SMILES	Test A Sinf [%]	EC50 [µM]
COc1cc(C#N)c(O[C@H]2CC[C@@](C)(C(=O)O)CC2)cc1C(=O)N[C@@H]1[C@H]2CC[C@H](C2)[C@@H]1C(=O)N[C@@H](C)c1ccccc1 (racemic) [Example 140]	95	0.084
COc1ccc(CCC(=O)O)cc1C(=O)N[C@H]1[C@@H](C(=O)Nc2cccc(S(=O)(=O)C(F)(F)F)c2)[C@@H]2C=C[C@H]1C2 (racemic) [Example 218, rac-3-(4-Methoxy-3-(((1R,2R,3S,4S)-3-((3-((trifluoromethyl)sulfonyl)phenyl)carbamoyl)bicyclo[2.2.1]hept-5-en-2-yl)carbamoyl)phenyl)propanoic acid]	–	> 40
COc1ccc(Cc2ccccc2C(=O)O)cc1C(=O)N[C@H]1[C@@H](C(=O)Nc2cccc(S(=O)(=O)C(F)(F)F)c2)[C@@H]2C=C[C@H]1C2 (racemic) [Example 223, rac-2-(4-Methoxy-3-(((1R,2R,3S,4S)-3-((3-((trifluoromethyl)sulfonyl)phenyl)carbamoyl)bicyclo[2.2.1]hept-5-en-2-yl)carbamoyl)benzyl)benzoic acid]	–	> 40
COc1cc(F)c(-c2ccc(C(=O)O)cc2F)cc1C(=O)N[C@H]1[C@@H](C(=O)Nc2cccc(S(=O)(=O)C(F)(F)F)c2)[C@@H]2C=C[C@H]1C2 (racemic) [Example 227]	102	0.42
COc1cc(F)c(-c2cncc(C(=O)O)c2)cc1C(=O)N[C@H]1[C@@H](C(=O)Nc2cccc(S(=O)(=O)C(F)(F)F)c2)[C@@H]2C=C[C@H]1C2 (racemic) [Example 228]	110	–
COc1cc(F)c(-c2c[nH]c(C(=O)O)c2)cc1C(=O)N[C@H]1[C@@H](C(=O)Nc2cccc(S(=O)(=O)C(F)(F)F)c2)[C@@H]2C=C[C@H]1C2 (racemic) [Example 229]	55	3.3
COc1ccc(-c2cc(C(=O)N[C@H]3[C@@H](C(=O)Nc4cccc(S(=O)(=O)C(F)(F)F)c4)[C@@H]4C=C[C@H]3C4)c(OC)cc2F)cc1C(=O)O (racemic) [Example 230]	116	1
COc1cc(F)c(-c2ccc(C(=O)O)c(F)c2)cc1C(=O)N[C@H]1[C@@H](C(=O)Nc2cccc(S(=O)(=O)C(F)(F)F)c2)[C@@H]2C=C[C@H]1C2 (racemic) [Example 232]	108	–
COc1cc(F)c(-c2cccc(C(=O)O)c2F)cc1C(=O)N[C@H]1[C@@H](C(=O)Nc2cccc(S(=O)(=O)C(F)(F)F)c2)[C@@H]2C=C[C@H]1C2 (racemic) [Example 233]	105	–
COc1cc(F)c(-c2ccccc2CC(=O)O)cc1C(=O)N[C@H]1[C@@H](C(=O)Nc2cccc(S(=O)(=O)C(F)(F)F)c2)[C@@H]2C=C[C@H]1C2 (racemic) [Example 235]	75	–
COc1cc(F)c(-c2ccnc(C(=O)O)c2)cc1C(=O)N[C@H]1[C@@H](C(=O)Nc2cccc(S(=O)(=O)C(F)(F)F)c2)[C@@H]2C=C[C@H]1C2 (racemic) [Example 272, rac-4-(2-Fluoro-4-methoxy-5-(((1R,2R,3S,4S)-3-((3-((trifluoromethyl)sulfonyl)phenyl)carbamoyl)bicyclo[2.2.1]hept-5-en-2-yl)carbamoyl)phenyl)picolinic acid]	107	4.9
COc1cc(F)c(-c2ccccc2C(=O)O)cc1C(=O)N[C@H]1[C@@H](C(=O)Nc2cccc(S(=O)(=O)C(F)(F)F)c2)[C@@H]2C=C[C@H]1C2 (racemic) [Example 273, rac-2′-Fluoro-4′-methoxy-5′-(((1R,2R,3S,4S)-3-((3-((trifluoromethyl)sulfonyl)phenyl)carbamoyl)bicyclo[2.2.1]hept-5-en-2-yl)carbamoyl)-[1,1′-biphenyl]-2-carboxylic acid]	–	> 40
COc1cc(F)c(-c2ccc(C(=O)O)nc2)cc1C(=O)N[C@H]1[C@@H](C(=O)Nc2cccc(S(=O)(=O)C(F)(F)F)c2)[C@@H]2C=C[C@H]1C2 (racemic) [Example 274, rac-5-(2-Fluoro-4-methoxy-5-(((1R,2R,3S,4S)-3-((3-((trifluoromethyl)sulfonyl)phenyl)carbamoyl)bicyclo[2.2.1]hept-5-en-2-yl)carbamoyl)phenyl)picolinic acid]	61	5.7
COc1cc(F)c(-c2nc(C(=O)O)co2)cc1C(=O)N[C@H]1[C@@H](C(=O)Nc2cccc(S(=O)(=O)C(F)(F)F)c2)[C@@H]2C=C[C@H]1C2 (racemic) [Example 275, rac-2-(2-Fluoro-4-methoxy-5-(((1R,2R,3S,4S)-3-((3-((trifluoromethyl)sulfonyl)phenyl)carbamoyl)bicyclo[2.2.1]hept-5-en-2-yl)carbamoyl)phenyl)oxazole-4-carboxylic acid]	83	11
COc1cc(F)c(-c2cnc(C(=O)O)cn2)cc1C(=O)N[C@H]1[C@@H](C(=O)Nc2cccc(S(=O)(=O)C(F)(F)F)c2)[C@@H]2C=C[C@H]1C2 (racemic) [Example 276]	95	3.3
COc1cc(F)c(-c2cc(C(=O)O)ccn2)cc1C(=O)N[C@H]1[C@@H](C(=O)Nc2cccc(S(=O)(=O)C(F)(F)F)c2)[C@@H]2C=C[C@H]1C2 (racemic) [Example 277]	122	7.4
COc1cc(F)c(-c2ccc(C(=O)O)cn2)cc1C(=O)N[C@H]1[C@@H](C(=O)Nc2cccc(S(=O)(=O)C(F)(F)F)c2)[C@@H]2C=C[C@H]1C2 (racemic) [Example 278]	104	–
COc1cc(F)c(-c2cccc(C(=O)O)n2)cc1C(=O)N[C@H]1[C@@H](C(=O)Nc2cccc(S(=O)(=O)C(F)(F)F)c2)[C@@H]2C=C[C@H]1C2 (racemic) [Example 279]	–	> 40
COc1cc(F)c(-c2cnc(C(=O)O)nc2)cc1C(=O)N[C@H]1[C@@H](C(=O)Nc2cccc(S(=O)(=O)C(F)(F)F)c2)[C@@H]2C=C[C@H]1C2 (racemic) [Example 280]	–	> 40
COc1cc(F)c(-c2cc(C(=O)O)cs2)cc1C(=O)N[C@H]1[C@@H](C(=O)Nc2cccc(S(=O)(=O)C(F)(F)F)c2)[C@@H]2C=C[C@H]1C2 (racemic) [Example 284, rac-5-(2-Fluoro-4-methoxy-5-(((1R,2R,3S,4S)-3-((3-((trifluoromethyl)sulfonyl)phenyl)carbamoyl)bicyclo[2.2.1]hept-5-en-2-yl)carbamoyl)phenyl)thiophene-3-carboxylic acid]	85	0.82
COc1cc(F)c(-c2ccc(C(=O)O)s2)cc1C(=O)N[C@H]1[C@@H](C(=O)Nc2cccc(S(=O)(=O)C(F)(F)F)c2)[C@@H]2C=C[C@H]1C2 (racemic) [Example 285]	75	0.3
COc1cc(F)c(-c2nc(C(=O)O)cs2)cc1C(=O)N[C@H]1[C@@H](C(=O)Nc2cccc(S(=O)(=O)C(F)(F)F)c2)[C@@H]2C=C[C@H]1C2 (racemic) [Example 286]	29	–
COc1cc(F)c(-c2ncc(C(=O)O)s2)cc1C(=O)N[C@H]1[C@@H](C(=O)Nc2cccc(S(=O)(=O)C(F)(F)F)c2)[C@@H]2C=C[C@H]1C2 (racemic) [Example 287]	111	0.57
COc1cc(F)c(-c2cccc([C@@H](C(=O)O)N(C)C)c2)cc1C(=O)N[C@@H]1[C@H]2CC[C@H](C2)[C@@H]1C(=O)Nc1cccc(S(=O)(=O)C(F)(F)F)c1 (racemic) [Example 294]	95	0.37
COc1cc(F)c(-c2ccc([C@@H](C(=O)O)N(C)C)cc2)cc1C(=O)N[C@@H]1[C@H]2CC[C@H](C2)[C@@H]1C(=O)Nc1cccc(S(=O)(=O)C(F)(F)F)c1 (racemic) [Example 295]	100	0.5
